Experimental data as given in patent US20180298024A1, “CORTISTATIN ANALOGS AND USES THEREOF” (President and Fellows of Harvard College, priority 2015, published 2018).
Several values for one entry are separate records, joined by “and”; a condition that tells them apart may be missing. Equal entries are not always repeated.

Tests used:
Tachykinin NK1 = biological target: T1, Tachykinin NK1 (Homo sapiens, UniProt P25103); experiment: Panlab assay, Tachykinin NK1; assay type: binding
T1 construct: Eurofins Panlabs
T1 sequence (P25103 whole entry): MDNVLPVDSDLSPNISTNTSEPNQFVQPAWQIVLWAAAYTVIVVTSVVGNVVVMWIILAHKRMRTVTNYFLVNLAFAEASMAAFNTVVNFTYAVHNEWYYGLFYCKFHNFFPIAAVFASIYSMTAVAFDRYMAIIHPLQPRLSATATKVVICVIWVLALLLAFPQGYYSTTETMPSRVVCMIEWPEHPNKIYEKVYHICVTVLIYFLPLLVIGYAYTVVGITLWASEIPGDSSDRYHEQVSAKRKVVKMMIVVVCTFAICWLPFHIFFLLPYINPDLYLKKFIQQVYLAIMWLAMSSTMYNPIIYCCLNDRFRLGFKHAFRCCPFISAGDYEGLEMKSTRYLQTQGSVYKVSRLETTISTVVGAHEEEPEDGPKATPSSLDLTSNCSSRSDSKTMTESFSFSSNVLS
Procedure: Compounds A, B, C, and D were tested in Panlab assays to evaluate potential off-target activity using standard assay kits. Methods employed in these studies have been adapted from the scientific literature to maximize reliability and reproducibility. Reference standards were run as an integral part of each assay to ensure the validity of the results obtained.
IC50 values were determined by a non-linear, least squares regression analysis using MathIQ™ (ID Business Solutions Ltd., UK). Where inhibition constants (Ki) are presented, the Ki values were calculated using the equation of Cheng and Prusoff (Cheng, Y., Prusoff, W. H., Biochem. Pharmacol. 22:3099-3108, 1973) using the observed IC50 of the tested compound, the concentration of radioligand employed in the assay, and the historical values for the KD of the ligand (obtained experimentally at Eurofins Panlabs, Inc.). Where presented, the Hill coefficient (nH), defining the slope of the competitive binding curve, was calculated using MathIQ™.

Phosphodiesterase PDE3 = biological target: T2, Phosphodiesterase PDE3 (Homo sapiens, UniProt Q14432); experiment: Panlab assay, Phosphodiesterase PDE3; assay type: biochemical; settings: read-out: IC50, inhibition of Phosphodiesterase PDE3 activity
T2 construct: Eurofins Panlabs
T2 sequence (Q14432 whole entry): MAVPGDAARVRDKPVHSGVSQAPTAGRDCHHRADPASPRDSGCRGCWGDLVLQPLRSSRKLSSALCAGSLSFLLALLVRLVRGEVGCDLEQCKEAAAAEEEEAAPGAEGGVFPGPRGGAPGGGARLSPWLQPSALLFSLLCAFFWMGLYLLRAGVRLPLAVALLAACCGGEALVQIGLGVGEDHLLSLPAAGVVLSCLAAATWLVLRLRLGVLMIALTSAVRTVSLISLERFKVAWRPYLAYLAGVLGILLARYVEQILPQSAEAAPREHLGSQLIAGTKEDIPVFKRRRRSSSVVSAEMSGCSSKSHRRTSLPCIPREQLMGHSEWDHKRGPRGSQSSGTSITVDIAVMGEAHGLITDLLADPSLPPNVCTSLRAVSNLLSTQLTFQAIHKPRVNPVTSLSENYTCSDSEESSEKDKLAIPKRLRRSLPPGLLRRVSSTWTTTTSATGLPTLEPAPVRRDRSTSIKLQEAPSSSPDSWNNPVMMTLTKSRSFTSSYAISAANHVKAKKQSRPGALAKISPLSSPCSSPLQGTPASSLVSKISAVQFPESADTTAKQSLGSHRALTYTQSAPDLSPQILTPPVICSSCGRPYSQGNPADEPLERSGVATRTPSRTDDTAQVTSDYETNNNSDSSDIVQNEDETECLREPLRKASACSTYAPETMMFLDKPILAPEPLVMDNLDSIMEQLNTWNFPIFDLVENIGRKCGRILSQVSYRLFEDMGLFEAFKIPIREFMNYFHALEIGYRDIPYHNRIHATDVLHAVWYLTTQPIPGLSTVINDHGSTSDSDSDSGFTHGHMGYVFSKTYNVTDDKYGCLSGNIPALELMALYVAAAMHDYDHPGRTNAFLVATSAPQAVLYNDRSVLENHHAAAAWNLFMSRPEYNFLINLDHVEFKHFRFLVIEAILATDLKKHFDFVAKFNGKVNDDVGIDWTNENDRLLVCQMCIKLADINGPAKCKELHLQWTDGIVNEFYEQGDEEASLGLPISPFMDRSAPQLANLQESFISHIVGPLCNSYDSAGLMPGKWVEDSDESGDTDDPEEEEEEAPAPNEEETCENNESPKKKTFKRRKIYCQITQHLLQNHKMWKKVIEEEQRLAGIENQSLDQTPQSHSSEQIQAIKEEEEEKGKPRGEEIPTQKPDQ
Procedure: Compounds A, B, C, and D were tested in Panlab assays to evaluate potential off-target activity using standard assay kits. Methods employed in these studies have been adapted from the scientific literature to maximize reliability and reproducibility.
IC50 values were determined by a non-linear, least squares regression analysis using MathIQ™ (ID Business Solutions Ltd., UK). […] Where presented, the Hill coefficient (nH), defining the slope of the competitive binding curve, was calculated using MathIQ™.

CAMK2B = biological target: T3, CAMK2B (Homo sapiens, UniProt Q13554); experiment: 33PanQinase radiometric kinase assay, CAMK2B; assay type: biochemical
T3 construct: purchased ProQinase; host or cells: Sf9 insect cells or E. coli
Procedure: (§1) A radiometric protein kinase assay (33PanQinase Activity Assay) was used for measuring the kinase activity of the 320 protein kinases. All kinase assays were performed in 96-well FlashPlates™ from Perkin Elmer (Boston, Mass., USA) in a 50 μl reaction volume. The reaction cocktail was pipetted in 4 steps in the following order: • 1. 10 μl of non-radioactive ATP solution (in H2O) • 2. 25 μl of assay buffer/[γ-33P]-ATP mixture • 3. 5 μl of test sample in 10% DMSO • 4. 10 μl of enzyme/substrate mixture
(§2) All PKC assays (except the PKC-mu and the PKC-nu assay) additionally contained 1 mM CaCl2, 4 mM EDTA, 5 μg/ml phosphatidylserine and 1 μg/ml 1,2-dioleyl-glycerol.
The CAMKID, CAMK2A, CAMK2B, CAMK2D, CAMK4, CAMKK1, CAMKK2, DAPK2, EEF2K, MYLK, MYLK2 and MYLK3 assays additionally contained 1 μg/ml Calmodulin and 0.5 mM CaCl2). The PRKG1 and PRKG2 assays additionally contained 1 μM cGMP. The DNA-PK assay additionally contained 2.5 μg/ml DNA. The protein kinase reaction cocktails were incubated at 30° C. for 60 minutes. The reaction was stopped with 50 μl of 2% (v/v) H3PO4, plates were aspirated and washed two times with 200 μl 0.9% (w/v) NaCl. Incorporation of 33Pi (counting of “cpm”) was determined with a microplate scintillation counter (Microbeta, Wallac). All protein kinase assays were performed with a BeckmanCoulter Biomek 2000/SL robotic system.
All protein kinases provided by ProQinase were expressed in Sf9 insect cells or in E. coli as recombinant GST-fusion proteins or His-tagged proteins, either as full-length or enzymatically active fragments. All kinases were produced from human cDNAs and purified by either GSHaffinity chromatography or immobilized metal. Affinity tags were removed from a number of kinases during purification. […]
(§3) For each kinase, the median value of the cpm of three wells was defined as “low control” (n=3). This value reflects unspecific binding of radioactivity to the plate in the absence of a protein kinase but in the presence of the substrate. […] The residual activity (in %) for each compounds well was calculated by using the following formula: […]

LTK = biological target: T4, LTK (Homo sapiens, UniProt P29376); experiment: 33PanQinase radiometric kinase assay, LTK; assay type: biochemical
T4 construct: purchased ProQinase; host or cells: Sf9 insect cells or E. coli
T4 sequence (P29376 17-864): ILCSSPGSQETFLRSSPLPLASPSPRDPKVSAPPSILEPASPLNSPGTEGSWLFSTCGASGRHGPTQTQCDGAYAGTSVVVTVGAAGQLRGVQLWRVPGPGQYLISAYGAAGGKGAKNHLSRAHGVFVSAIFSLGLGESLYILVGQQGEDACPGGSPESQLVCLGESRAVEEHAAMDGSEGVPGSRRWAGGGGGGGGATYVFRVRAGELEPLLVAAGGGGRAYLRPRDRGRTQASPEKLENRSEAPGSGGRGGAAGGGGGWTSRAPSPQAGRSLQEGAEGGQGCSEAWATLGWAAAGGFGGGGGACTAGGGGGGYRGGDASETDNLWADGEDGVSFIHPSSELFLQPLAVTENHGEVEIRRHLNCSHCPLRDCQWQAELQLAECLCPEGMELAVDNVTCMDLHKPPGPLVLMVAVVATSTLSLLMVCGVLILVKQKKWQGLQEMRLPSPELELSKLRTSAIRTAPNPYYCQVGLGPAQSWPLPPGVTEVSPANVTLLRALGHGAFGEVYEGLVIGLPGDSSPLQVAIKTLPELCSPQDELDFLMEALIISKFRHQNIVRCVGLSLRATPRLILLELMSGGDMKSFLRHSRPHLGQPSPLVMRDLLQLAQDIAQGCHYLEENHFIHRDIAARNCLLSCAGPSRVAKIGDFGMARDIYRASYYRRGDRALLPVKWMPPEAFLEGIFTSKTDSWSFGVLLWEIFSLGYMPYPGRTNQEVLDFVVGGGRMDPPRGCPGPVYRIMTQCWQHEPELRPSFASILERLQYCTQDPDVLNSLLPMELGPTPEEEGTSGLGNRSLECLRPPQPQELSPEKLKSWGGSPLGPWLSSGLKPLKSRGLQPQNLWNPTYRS
Procedure: as §1, §2
The CAMKID, CAMK2A, CAMK2B, CAMK2D, CAMK4, CAMKK1, CAMKK2, DAPK2, EEF2K, MYLK, MYLK2 and MYLK3 assays additionally contained 1 μg/ml Calmodulin and 0.5 mM CaCl2). The PRKG1 and PRKG2 assays additionally contained 1 μM cGMP. The DNA-PK assay additionally contained 2.5 μg/ml DNA. […] Incorporation of 33Pi (counting of “cpm”) was determined with a microplate scintillation counter (Microbeta, Wallac). […]
as §3

320 protein kinases = experiment: 33PanQinase radiometric kinase assay, kinome profiling; assay type: biochemical, human; settings: 1 μM; 320 kinases; initial test
Procedure: as §1, §2
The CAMKID, CAMK2A, CAMK2B, CAMK2D, CAMK4, CAMKK1, CAMKK2, DAPK2, EEF2K, MYLK, MYLK2 and MYLK3 assays additionally contained 1 μg/ml Calmodulin and 0.5 mM CaCl2). […] Incorporation of 33Pi (counting of “cpm”) was determined with a microplate scintillation counter (Microbeta, Wallac). […]
Kinases from external vendors CAR=Carna Biosciences Inc.; INV=Life Technologies (Invitrogen Corporation); MIL=Merck-Millipore (Millipore Corporation) were expressed, purified and quality-controlled by virtue of the vendors readings.
For each kinase, the median value of the cpm of three wells was defined as “low control” (n=3). […] The residual activity (in %) for each compounds well was calculated by using the following formula: […]

`C[C@]12CC=C3C=C4CC[C@@H](O)C[C@]45CC[C@]3(O5)[C@@H]1CC[C@@H]2c1ccc2ccncc2c1` [Compound A, (3S,3aR,9R,10aR,12aS,12bR)-3-(isoquinolin-7-yl)-3a-methyl-1,2,3,3a,4,7,8,9,10,11,12,12b-dodecahydro-10a,12a-epoxybenzo[4,5]cyclohepta[1,2-e]inden-9-ol] was tested, and the IC50 (Tachykinin NK1) was 5.94 µM, the “nH (Hill coefficient), Tachykinin NK1” value (Tachykinin NK1) was 1.01 and the Ki (Tachykinin NK1; Cheng and Prusoff) was 4.3 µM. The IC50 (Phosphodiesterase PDE3) was 3.26 µM, the inhibition at 1 µM (CAMK2B; 1 μM, 2 replicates, read-out: average percent inhibition of CAMK2B) was over 50% and the “percent inhibition of CAMK2B, replicates” value (CAMK2B; 1 μM, single replicates) was 36% and 79%. The “inhibition of CAMK2B upon retesting” value (CAMK2B; up to 10 μM) was “not inhibited”, the inhibition at 1 µM (LTK; 1 μM, 2 replicates, read-out: average percent inhibition of LTK) was over 50% and the “inhibition of LTK upon retesting” value (LTK; up to 10 μM) was “not inhibited”. The “number of kinases with an average of >50% inhibition” value (320 protein kinases) was 5.
